Consider five compounds from patent US9295732B2, “Conjugated TLR7 and/or TLR8 and TLR2 polycationic agonists” (CAYLA, priority 2013, dated 2016).

Experiment [1] has as its system B16-F1 cells. Kind of experiment: Cell transfection with SEAP plasmid, B16-F1. It counts as cell-based, mouse. The following applies: in complex with pVitro14 LGFP SEAP plasmid, 48 hours, SEAP expression; FIG. 5B. Here is the method: The TLR7-TLR2 molecules were tested for their ability as polyamine molecules to transport plasmid DNA (pDNA) into cells. The pVitro14 LGFP SEAP plasmid (InvivoGen) was complexed to TLR7-TLR2 polyamine molecules and to the control cationic lipid transfection agent, LyoVec™ (InvivoGen). The human HEK293 (ATCC, CRL-1573) and mouse B16-F1 melanoma (ATCC, CRL-6323) cell lines were seeded at a density of 50 000 cells/well and 20 000 cells/well respectively, in the absence or presence of different volumes of the plasmid encoding for the SEAP protein in complex with TLR7-TLR2 polyamine molecules for 48 hours at 37° C. and 10% CO2. Transfection efficiency was assessed by measuring SEAP reporter gene expression: 20 μl of supernatant was sampled and mixed with 180 μl of QUANTI-Blue™ Detection (InvivoGen). In the presence of alkaline phosphatase SEAP, the color of QUANTI-Blue™ changes from pink to purple/blue. The intensity of the blue hue reflects the activity of SEAP. The levels of SEAP secretion were determined quantitatively by reading the OD at 620-655 nm using a spectrophotometer, iMark™ Microplate Reader (BIO-RAD).

The target of experiment [2] is T1, human TLR2 (Homo sapiens, UniProt O60603).
T1 construct: host or cells: HEK293 (HEK-Blue™ hTLR2)
Kind of experiment: HEK-Blue hTLR2 NF-κB/AP-1 SEAP reporter assay. To be noted: HEK-Blue hTLR2 cells, 10 μg/mL to 10 pg/ml, 24 hours, OD at 655 nm, FIG. 3. It counts as cell-based. A digest of the protocol:
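HEK293 cells stably expressing the given TLR, or RAW 264.7-derived cells (50,000 or 100,000 cells/well respectively), carry an NF-κB/AP-1-inducible SEAP reporter. Conjugated TLR7-TLR2 agonists at final 10 μg/mL to 10 pg/ml, 24 h at 37° C. SEAP read colorimetrically as OD at 655 nm in detection medium.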
(In a reporter assay the amount or activity of a reporter protein is the signal.)

Experiment [3] concerns ISG54 promoter activity in RAW-ISG54 reporter cells. Kind of experiment: IFN response assay, RAW-ISG54 luciferase reporter cells. To be noted: in complexes with pDNA 3:24 (w:w), overnight, FIG. 6A. It counts as cell-based, mouse. Here is the method:
The effect of the pDNA:TLR7-TLR2 polyamine molecules complexes on inducing an interferon response was examined. pDNA:TLR7-TLR2 polyamine molecules mixtures (pDNA:TLR7-TLR2 polyamine molecules ratio 3:24, w:w) in serum-free medium or 5% glucose were prepared as described above and added to IFN reporter cells. Luciferase reporter cell lines were used to assay interferon response. A plasmid containing an interferon-inducible luciferase reporter gene was introduced into mouse RAW 264.7 macrophages and mouse B16 melanoma cells, giving rise to the RAW-ISG54 and B16-ISG54 reporter cell lines respectively. Expression of the luciferase reporter gene by the plasmid is under the control of an interferon-inducible promoter (I-ISG54) comprising five interferon-stimulated response elements (ISRE) and the minimal promoter of the human ISG-54K (Interferon Stimulation of a Gene encoding a 54 kDa protein) gene. The ISG-54K gene is induced by interferon regulatory factor 3 (IRF3), which has a key involvement in […] responses (Grandvaux et al. 2002) and the minimal promoter of the human ISG-54K gene contains two ISRE sites and fully inducible by type I interferons (IFN-α and IFN-β) and interferon regulatory factors (IRFs) (Wathelet et al. 1988; Grandvaux et al. 2002).
The RAW-ISG54 and B16-ISG54 reporter cell lines were seeded onto 96 well microtiter plates at 100,000 cells per well and 75,000 cells per well respectively. Cells were cultured in DMEM supplemented with 10% (v/v) heat inactivated fetal bovine serum (30 min at 56° C.), 4.5 g/I glucose, 2 mM L-glutamine, 50 U/ml penicillin, 50 μg/ml streptomycin, 100 μg/ml Normocin™ (InvivoGen) together with pDNA:TLR7-TLR2 polyamine complexes at 37° C. overnight. pDNA:TLR7-TLR2 polyamine molecules complexes were prepared as described above prior to adding to the IFN reporter cells. The induced luciferase expression was assessed in the reporter cell lines using a coelenterazine-base luminescence assay reagent, the Quanti-Luc™ (InvivoGen). Secreted luciferase activity was determined by bioluminescence quantification of the cell culture media using a microplate luminometer (FLUOstar OPTIMA from BMG Labtech).

T1 sequence (O60603 21-784): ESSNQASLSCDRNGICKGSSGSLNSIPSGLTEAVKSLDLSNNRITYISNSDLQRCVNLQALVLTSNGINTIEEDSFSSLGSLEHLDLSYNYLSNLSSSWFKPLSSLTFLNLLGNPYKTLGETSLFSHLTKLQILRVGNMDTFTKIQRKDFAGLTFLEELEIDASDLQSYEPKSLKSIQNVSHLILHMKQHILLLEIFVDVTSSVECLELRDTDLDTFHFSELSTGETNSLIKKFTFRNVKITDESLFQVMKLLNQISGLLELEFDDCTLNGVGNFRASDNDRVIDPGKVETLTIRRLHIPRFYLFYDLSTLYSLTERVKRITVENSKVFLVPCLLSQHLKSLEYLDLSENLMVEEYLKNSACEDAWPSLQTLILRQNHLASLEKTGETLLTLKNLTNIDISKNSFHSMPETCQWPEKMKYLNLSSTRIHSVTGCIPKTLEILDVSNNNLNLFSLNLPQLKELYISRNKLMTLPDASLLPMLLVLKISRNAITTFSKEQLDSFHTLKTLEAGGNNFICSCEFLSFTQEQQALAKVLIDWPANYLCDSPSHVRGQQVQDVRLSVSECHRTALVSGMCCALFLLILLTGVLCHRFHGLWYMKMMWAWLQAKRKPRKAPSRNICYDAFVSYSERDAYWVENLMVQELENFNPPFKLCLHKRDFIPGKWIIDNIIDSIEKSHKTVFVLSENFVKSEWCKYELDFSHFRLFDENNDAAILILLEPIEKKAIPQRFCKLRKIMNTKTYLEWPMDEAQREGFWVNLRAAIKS

With `CCCCCCCCCCCCCCCC(=O)OCC(CSC[C@H](N)C(=O)N[C@@H](COC(=O)c1ccc(Cn2c(O)nc3c(N)nc(NCCCC)nc32)cc1)C(=O)NCCCNCCCCNCCCN)OC(=O)CCCCCCCCCCCCCCC` (stereo partly drawn) [CL514, (6R,9S)-6,23-diamino-9-((4-((6-amino-2-(butylamino)-8-hydroxy-9H-purin-9-yl)methyl)benzoyloxy)methyl)-7,10-dioxo-4-thia-8,11,15,20-tetraazatricosane-1,2-diyl dipalmitate], in experiment [1], the “ability to transfect B16-F1 cells” value is “transfect B16-F1 cells”. Moreover, the “ability to activate hTLR2” value in experiment [2] is on record as “activate hTLR2”. Moreover, the “ability to induce an IFN response in RAW-ISG54 reporter cells” value (from here on “ability to induce an IFN response”) in experiment [3] is “induce an IFN response in RAW-ISG54 reporter cells”.

Regarding “(6S,9S,12S,15S,18S,21R)-6,25-diamino-21-(4-((6-amino-2-(butylamino)-8-hydroxy-9H-purin-9-yl)methyl)phenylcarbamoyl)-12,15,18-tris(4-aminobutyl)-9-(hydroxyl methyl)-7,10,13,16,19-pentaoxo-4-thia-8,11,14,17,20-pentaazapentacosane-1,2-diyl dipalmitate [CL413]”, the “ability to transfect B16-F1 cells” value in experiment [1] is “lack the ability to transfect cells”. Also, in experiment [2], the “ability to activate hTLR2” value was “activate hTLR2”. Moreover, the “ability to induce an IFN response” value in experiment [3] was “induce an IFN response in RAW-ISG54 reporter cells”.

Turning to `CCCCCCCCCCCCCCCC(=O)OCC(CSC[C@H](N)C(=O)NCCCNCCCCNCCCNC(=O)CNC(=O)c1ccc(Cn2c(O)nc3c(N)nc(NCCCC)nc32)cc1)OC(=O)CCCCCCCCCCCCCCC` (stereo partly drawn) [CL553, (20R)-20-amino-1-(4-((6-amino-2-(butylamino)-8-hydroxy-9H-purin-9-yl)methyl)phenyl)-1,4,19-trioxo-22-thia-2,5,9,14,18-pentaazapentacosane-24,25-diyl dipalmitate], the “ability to transfect B16-F1 cells” value in experiment [1] is given as “transfect B16-F1 cells”. In addition, in experiment [2], the “ability to activate hTLR2” value was “activate hTLR2”. Further, in experiment [3], the “ability to induce an IFN response” value is “induce an IFN response in RAW-ISG54 reporter cells”.

On to `CCCCCCCCCCCCCCCC(=O)N[C@@H](CSCC(COC(=O)CCCCCCCCCCCCCCC)OC(=O)CCCCCCCCCCCCCCC)C(=O)N[C@@H](CO)C(=O)N[C@@H](CCCCN)C(=O)N[C@@H](CCCCN)C(=O)N[C@@H](CCCCN)C(=O)N[C@@H](CCCCN)C(=O)Nc1ccc(Cn2c(O)nc3c(N)nc(NCCCC)nc32)cc1` (stereo partly drawn) [CL534, ((6R,9S,12S,15S,18S,21S)-25-amino-21-(4-((6-amino-2-(butylamino)-8-hydroxy-9H-purin-9-yl)methyl)phenylcarbamoyl)-12,15,18-tris(4-aminobutyl)-9-(hydroxylmethyl)-7,10,13,16,19-pentaoxo-6-palmitamido-4-thia-8,11,14,17,20-pentaazapentacosane-1,2-diyl dipalmitate], for which the “ability to transfect B16-F1 cells” value in experiment [1] is listed as “lack the ability to transfect cells”. The “ability to activate hTLR2” value in experiment [2] is “activate hTLR2”.

Regarding `CCCCCCCCCCCCCCCC(=O)OCC(CSC[C@H](N)C(=O)N[C@@H](CCC(=O)NCCCNCCCCNCCCN)C(=O)Nc1ccc(Cn2c(O)nc3c(N)nc(NCCCC)nc32)cc1)OC(=O)CCCCCCCCCCCCCCC` (stereo partly drawn) [CL527, (6R,9S)-6,25-diamino-9-(4-((6-amino-2-(butylamino)-8-hydroxy-9H-purin-9-yl)methyl)phenylcarbamoyl)-7,12-dioxo-4-thia-8,13,17,22-tetraazapentacosane-1,2-diyl dipalmitate], in experiment [1], the “ability to transfect B16-F1 cells” value is reported as “transfect B16-F1 cells”. Further, in experiment [2], the “ability to activate hTLR2” value is “activate hTLR2”. For the same compound, the “ability to induce an IFN response” value in experiment [3] is “induce an IFN response in RAW-ISG54 reporter cells”.
